Reference: the NIST ThermoML archive (doi:10.1021/je300045c)
Where “and” joins values, the source holds several entries; their conditions need not be identical. Identical values can stand only once. Numbers after ± are expanded uncertainties.

Assays:
[1] = xn = mol fraction of the nth substance listed; details: 358.15 K, 101 kPa, Liquid; for viscosity: Falling or rolling sphere viscometry; for electrical conductivity: Alternating current cell with electrodes; for mass density: Vibrating tube method
[2] = molar heat capacity at constant pressure; wn = mass fraction of the nth substance listed; details: 358.15 K, 101 kPa, Liquid, Small sample (50 mg) DSC
[3] = 358.15 K, 101 kPa, Liquid

O [water] + CCCCn1cc[n+](C)c1.CS(=O)(=O)[O-]
Details	molar heat capacity at constant pressure [J/K/mol]	viscosity [mPa·s]
[1], x1 = 1	–	0.334 ± 0.033
[2], w1 = 1	4.12 ± 0.23	–

CCCCn1cc[n+](C)c1.CS(=O)(=O)[O-] [1-butyl-3-methylimidazolium methanesulfonate] + O
Details	electrical conductivity [S/m]	mass density [kg/m3]	molar heat capacity at constant pressure	viscosity [mPa·s]
[1], x2 = 0	0.805 ± 0.14	1134 ± 2	–	–
[1], x2 = 0.012	0.821 ± 0.14	1134 ± 2	–	–
[1], x2 = 0.028	0.84 ± 0.14	1134 ± 2	–	–
[1], x2 = 0.049	0.871 ± 0.14	1134 ± 2	–	–
[1], x2 = 0.074	0.907 ± 0.14	1133 ± 2	–	–
[1], x2 = 0.106	0.955 ± 0.14	1133 ± 2	–	–
[1], x2 = 0.131	1 ± 0.14	1132 ± 2	–	–
[1], x2 = 0.14	–	1132 ± 2	–	–
[1], x2 = 0.147	1.03 ± 0.14	1132 ± 2	–	–
[1], x2 = 0.156	1.06 ± 0.14	–	–	–
[1], x2 = 0.159	–	1131 ± 2	–	–
[1], x2 = 0.185	1.12 ± 0.14	–	–	–
[1], x2 = 0.187	–	1130 ± 2	–	–
[1], x2 = 0.203	1.14 ± 0.14	1130 ± 2	–	–
[1], x2 = 0.217	1.2 ± 0.14	–	–	–
[1], x2 = 0.224	–	1129 ± 2	–	–
[1], x2 = 0.252	1.29 ± 0.14	–	–	–
[1], x2 = 0.27	1.3 ± 0.14	1129 ± 2	–	–
[1], x2 = 0.271	–	1128 ± 2	–	–
[1], x2 = 0.306	1.44 ± 0.14	–	–	–
[1], x2 = 0.329	–	1126 ± 4	–	–
[1], x2 = 0.358	1.61 ± 0.14	–	–	–
[1], x2 = 0.363	1.59 ± 0.14	1126 ± 4	–	–
[1], x2 = 0.4	–	1125 ± 4	–	–
[1], x2 = 0.423	1.87 ± 0.14	–	–	–
[1], x2 = 0.457	2 ± 0.14	1124 ± 4	–	–
[1], x2 = 0.478	–	1122 ± 4	–	–
[1], x2 = 0.495	2.22 ± 0.14	–	–	–
[1], x2 = 0.535	2.46 ± 0.14	–	–	–
[1], x2 = 0.555	–	1121 ± 4	–	–
[1], x2 = 0.556	2.58 ± 0.14	1120 ± 4	–	–
[1], x2 = 0.559	–	1120.7 ± 2	–	7.514 ± 0.76
[1], x2 = 0.61	3.02 ± 0.14	–	–	–
[1], x2 = 0.628	–	1118 ± 4	–	–
[1], x2 = 0.643	3.14 ± 0.14	1116 ± 6	–	–
[1], x2 = 0.654	–	1114.4 ± 2	–	5.344 ± 0.54
[1], x2 = 0.677	3.71 ± 0.14	–	–	–
[1], x2 = 0.692	–	1113 ± 6	–	–
[1], x2 = 0.702	–	1110.3 ± 2	–	4.549 ± 0.46
[1], x2 = 0.744	4.6 ± 0.16	1106 ± 6	–	–
[1], x2 = 0.749	–	1104.1 ± 2	–	3.616 ± 0.36
[1], x2 = 0.75	4.81 ± 0.16	–	–	–
[1], x2 = 0.771	–	1105 ± 6	–	–
[1], x2 = 0.801	–	1094.9 ± 2	–	2.795 ± 0.28
[1], x2 = 0.836	6.82 ± 0.2	1087 ± 10	–	–
[1], x2 = 0.842	7.27 ± 0.2	–	–	–
[1], x2 = 0.848	–	1085 ± 10	–	–
[1], x2 = 0.852	–	1081.2 ± 2	–	2.048 ± 0.21
[1], x2 = 0.878	9 ± 0.17	–	–	–
[1], x2 = 0.886	–	1072 ± 10	–	–
[1], x2 = 0.9	–	1062.3 ± 2	–	1.486 ± 0.15
[1], x2 = 0.925	–	1048.2 ± 2	–	1.149 ± 0.12
[1], x2 = 0.95	–	1029.7 ± 2	–	0.834 ± 0.087
[1], x2 = 0.975	–	1003.9 ± 2	–	0.547 ± 0.058
[2], w2 = 0.002	–	–	1.768 ± 0.22 J/K/mol	–
[2], w2 = 0.014	–	–	1.793 ± 0.22 J/K/mol	–
[2], w2 = 0.032	–	–	1.996 ± 0.22 J/K/mol and 2.027 ± 0.22 J/K/mol	–
[2], w2 = 0.087	–	–	2.267 ± 0.22 J/K/mol	–
[2], w2 = 0.097	–	–	2.252 ± 0.22 J/K/mol	–
[2], w2 = 0.15	–	–	2.244 ± 0.22 J/K/mol	–
[2], w2 = 0.233	–	–	2.448 ± 0.22 J/K/mol	–
[2], w2 = 0.429	–	–	2.926 ± 0.22 J/K/mol	–

CCCCn1cc[n+](C)c1.CS(=O)(=O)[O-] [1-butyl-3-methylimidazolium methanesulfonate]
[3]
Details	electrical conductivity [S/m]	mass density [kg/m3]
Alternating current cell with electrodes	0.805 ± 0.14	–
Vibrating tube method	–	1134 ± 2
